Data taken from BindingDB's records for doi:10.1016/j.bmcl.2012.09.081 (2012).

Experiment: Inhibition of tobacco hornworm V-ATPase c subunit

IC50: 600 nM
Structure (SMILES): CNC(=O)O[C@@H](CC(C)C)c1nc([C@H]2OC(=O)/C(C)=C/C/C(C)=C/[C@@H](OC(=O)c3ccc(C4(C(F)(F)F)N=N4)cc3)[C@@H](C)\C=C(C)/C=C(C)\C=C\[C@@H](OC(=O)c3ccc(C4(C(F)(F)F)N=N4)cc3)[C@H](C)[C@H](OC)/C(C)=C/C=C/[C@@H]2C)cs1
